ChEMBL document CHEMBL3714762, “Agents and methods for treating ischemic and other diseases” (2012)
Converted amounts (≈) assume the structure as drawn.

Legend:
[1] = Antiproliferative activity against human WERI cells assessed as inhibition of cell proliferation by propidium iodide uptake based fluoroskan microplate reader analysis; type: functional
[2] = Antiproliferative activity against human WERI cells assessed as inhibition of cell proliferation by measuring normalized ratio of propidium iodide uptake at 10 uM by propidium iodide uptake based fluoroskan microplate reader analysis; type: functional
[3] = Antiproliferative activity against human WERI cells assessed as inhibition of cell proliferation by measuring normalized ratio of propidium iodide uptake at 5 uM by propidium iodide uptake based fluoroskan microplate reader analysis; type: functional
[4] = test system: Y79; experiment: Antiproliferative activity against human Y79 cells assessed as inhibition of cell proliferation at 10 uM incubated for 72 hrs by Cell-titer-Glo cell viability assay; type: functional; settings: Y79, 72 h
[5] = test system: MCF7; experiment: Antiproliferative activity against human MCF7 cells assessed as inhibition of cell proliferation at 10 uM incubated for 72 hrs by Cell-titer-Glo cell viability assay; type: functional; settings: MCF7, 72 h
[6] = Antiproliferative activity against human MCF10A cells assessed as inhibition of cell proliferation at 10 uM incubated for 72 hrs by Cell-titer-Glo cell viability assay; type: cell-based, MCF-10A
[7] = Antiproliferative activity against mouse B16F10 cells assessed as inhibition of cell proliferation at 10 uM incubated for 72 hrs by Cell-titer-Glo cell viability assay; type: functional; settings: B16-F10, 72 h
[8] = test system: HeLa; experiment: Antiproliferative activity against human HeLa cells assessed as inhibition of cell proliferation at 10 uM incubated for 72 hrs by Cell-titer-Glo cell viability assay; type: functional
[9] = Antiproliferative activity against human DMS53 cells assessed as inhibition of cell proliferation at 10 uM incubated for 72 hrs by Cell-titer-Glo cell viability assay; type: functional; settings: DMS-53, 72 h
[10] = Antiproliferative activity against human WI38 cells assessed as inhibition of cell proliferation at 10 uM incubated for 72 hrs by Cell-titer-Glo cell viability assay; type: cell-based, WI-38
[11] = Solubility in aqueous solution; type: physicochemical
[12] = Antiproliferative activity against human WERI cells assessed as inhibition of cell proliferation at 5 uM by propidium iodide uptake based fluoroskan microplate reader analysis; type: functional
[13] = Antiproliferative activity against human WERI cells assessed as inhibition of cell proliferation at 10 uM by propidium iodide uptake based fluoroskan microplate reader analysis; type: functional

`Cc1ccc(S(=O)(=O)Nc2sc3ccccc3c2Cl)cc1` showed an IC50 [1] of 3.59 µM, a Ratio [2] of 0.121 and a Ratio [3] of 0.297.
Compound `CC1c2ccsc2CCN1C(=O)c1sc2ccccc2c1Cl` (stereo unspecified) has an IC50 [1] of 1.55 µM, a Ratio [2] of 0.056 and a Ratio [3] of 0.
For `Fc1ccc2c(c1)CCCN2Cc1sc2ccccc2c1Cl`, the IC50 [1] was 4.09 µM, the Ratio [2] was 0.098 and the Ratio [3] was 0.286.
Work on `COc1cc2c(cc1OC)C(c1sc3ccccc3c1Cl)N(C)CC2` (stereo unspecified) yielded an IC50 [1] of 1.77 µM, a Ratio [2] of 0 and a Ratio [3] of 0.042.
Work on `COc1ccc2c(c1)CCN(C)C2c1sc2ccccc2c1Cl` (stereo unspecified) yielded an IC50 [1] of 4.34 µM, a Ratio [2] of 0.027 and a Ratio [3] of 0.344.
In the case of `O=C(NCc1ccccc1N1CCCC1)c1sc2ccccc2c1Cl`, the inhibition at 10 µM [4] is reported as > 40%, the IC50 [1] is reported as 1.25 µM and the inhibition at 10 µM [5] is reported as > 40%. The inhibition at 72 h, 10 µM [6] was > 40%, the inhibition at 10 µM [7] was > 40% and the inhibition at 10 µM [8] was > 40%. The inhibition at 10 µM [9] was > 40%, the Ratio [2] was 0.375 and the Ratio [3] was 0.195.
In the case of `COc1ccc2sc(C(=O)N3CCCc4cc(C)ccc43)c(Cl)c2c1`, the inhibition at 10 µM [4] is reported as > 40%, the IC50 [1] is reported as 2.83 µM and the inhibition at 10 µM [5] is reported as > 40%. For the same compound, the inhibition at 72 h, 10 µM [6] was > 40%, the inhibition at 10 µM [7] was > 40% and the inhibition at 10 µM [8] was > 40%. For the same compound, the Ratio [2] was 0.051 and the Ratio [3] was 0.116.
For `Cc1ccc(N(C)C(=O)c2sc3ccccc3c2Cl)c(C)c1`, the IC50 [1] was 4.57 µM, the Ratio [2] was 0.33 and the Ratio [3] was 0.53.
With `COc1ccc2c(Cl)c(C(=O)N3CCCc4cc(C)ccc43)sc2c1` the inhibition at 10 µM [4] was > 40%, the IC50 [1] was 4.03 µM and the inhibition at 72 h, 10 µM [10] was > 40%. For the same compound, the inhibition at 10 µM [5] was > 40%, the inhibition at 72 h, 10 µM [6] was > 40% and the inhibition at 10 µM [7] was > 40%. The inhibition at 10 µM [8] was > 40%, the inhibition at 10 µM [9] was > 40% and the Ratio [2] was 0.11. The Ratio [3] was 0.294.
With `COc1cc2c(cc1OC)C(c1sc3cccc(C)c3c1Cl)=NCC2` the inhibition at 10 µM [4] was > 40%, the IC50 [1] was 0.34 µM and the inhibition at 72 h, 10 µM [10] was > 40%. The inhibition at 10 µM [5] was > 40%, the inhibition at 72 h, 10 µM [6] was > 40% and the inhibition at 10 µM [7] was > 40%. For the same compound, the inhibition at 10 µM [8] was > 40%, the inhibition at 10 µM [9] was > 40% and the Ratio [2] was 0.028. The Ratio [3] was 0.042 and the solubility [11] was 100 µM (≈ 37.2 µg/mL).
`COc1ccc2c(c1)C(c1sc3ccccc3c1Cl)=NCC2` showed an IC50 [1] of 3.21 µM, a Ratio [2] of 0.07 and a Ratio [3] of 0.36.
For `Clc1cccc2c1CCN=C2c1sc2ccccc2c1Cl`, the IC50 [1] was 2.26 µM, the Ratio [2] was 0.1 and the Ratio [3] was 0.065.
For `COc1ccc2c(c1)C(c1sc3cccc(C)c3c1Cl)=NCC2`, the inhibition at 10 µM [4] was > 40%, the IC50 [1] was 1.31 µM and the inhibition at 72 h, 10 µM [10] was > 40%. For the same compound, the inhibition at 10 µM [5] was > 40%, the inhibition at 72 h, 10 µM [6] was > 40% and the inhibition at 10 µM [8] was > 40%. The inhibition at 10 µM [9] was > 40%, the Ratio [2] was 0.047 and the Ratio [3] was 0.019.
Work on `COc1cc2c(cc1OC)C(c1sc3cccc(C)c3c1Cl)NCC2` (stereo unspecified) yielded a solubility [11] of 100 µM (≈ 37.4 µg/mL).
Work on `COc1cc2c(cc1OC)C(c1sc3ccccc3c1Cl)NCC2` (stereo unspecified) yielded an IC50 [1] of 0.08 µM, a Ratio [2] of 0 and a Ratio [3] of 0.019.
For `O=C(c1sc2ccccc2c1Cl)N1CCCc2ccccc21`, the IC50 [1] was 9.8 µM, the Ratio [2] was 0.216 and the Ratio [3] was 0.545.
In the case of `COc1cc2c(cc1OC)CN(C(=O)c1sc3ccccc3c1Cl)CC2`, the IC50 [1] is reported as 0.62 µM, the Ratio [2] is reported as 0.024 and the Ratio [3] is reported as 0.042.
In the case of `Cc1c(Cc2ccc(Cl)c(Cl)c2)c(=O)oc2cc(O)c(F)cc12`, the IC50 [1] is reported as 4.03 µM, the Ratio [2] is reported as 0.002 and the Ratio [3] is reported as 0.314.
With `Cc1ccc2c(c1)CCCN2C(=O)c1[nH]c2ccccc2c1Cl` the inhibition at 5 µM [12] was 9%, the Ratio [2] was 0.76 and the inhibition at 10 µM [13] was 33%. For the same compound, the Ratio [3] was 0.77.
With `Cc1ccc2c(c1)CCCN2C(=O)c1sc2cccc(F)c2c1Cl` the IC50 [1] was 3.29 µM, the Ratio [2] was 0.097 and the Ratio [3] was 0.273.
